Reference: paper PMC10610134, “Verubulin (Azixa) Analogues with Increased Saturation: Synthesis, SAR and Encapsulation in Biocompatible Nanocontainers Based on Ca^2+ or Mg^2+ Cross-Linked Alginate” (Pharmaceuticals, 2023)
Where two headings read alike, the source gives them in different places. Each block holds one compound with its values, some of them ahead of it.

Columns and labels:
A549 = conditions: cited from earlier work
[1] = test system: immortalized lung fibroblast cell line VA13 (WI38 subline 2RA); assay: MTT cytotoxicity assay, VA13; assay type: cell-based; conditions: Homo sapiens, read-out: IC50, nM VA13
Text: (§1) The obtained series of verubulin analogues 2a–r (which also included three by-products isolated in the reactions according to Scheme 2) were initially evaluated for cytotoxicity against commonly used human breast cancer cell line MCF7′ (fast-growth subclone), human lung epithelial carcinoma cell line A549 and etiologically non-cancer immortalized lung fibroblast cell line VA13 (WI38 subline 2RA). Cytotoxicity against immortalized human embryonic kidney cell line HEK293T, characterized by a high growth rate, was also studied regarding cytotoxicity against non-cancerous fast-growth cells. A standard MTT assay was performed; verubulin (1) served as a positive reference. The data obtained are presented in Table 1 (for dose–response curves, see Supplementary Materials).
(§2) Human breast cancer cell line MCF7′ and human lung adenocarcinoma cell line A549 were kindly provided by Dr. S. Dmitriev (Lomonosov Moscow State University), immortalized human fibroblast cell line VA13 (WI38 subline 2RA) was kindly provided by Dr. M. Rubtsova (Lomonosov Moscow State University), human embryonic kidney HEK293T cell line was kindly provided by Dr. E. Knyazhanskaya (Lomonosov Moscow State University). MCF7′, VA13, A549 and HEK293T cell lines were maintained in DMEM/F-12 (Thermo Fisher Scientific, Waltham, MA, USA) culture medium containing 10% fetal bovine serum (Thermo Fisher Scientific, Waltham, MA, USA) and 50 μg/mL penicillin and 0.05 mg/mL streptomycin at 37 °C (Thermo Fisher Scientific, Waltham, MA, USA) in 5% CO2. Cells were maintained at 37 °C in a humidified MCO-18AC incubator (Sanyo, Tokyo, Japan) supplied with 5% CO2. Cell cultures were tested for the absence of mycoplasma and validated by STR.
(§3) The cytotoxicity of the substances was tested using the 3-(4,5-dimethylthiazol-2-yl)2,5-diphenyl tetrazolium bromide (MTT) assay with some modifications. A total of 2500 cells per well for the MCF7′, HEK293T, A549 cell lines or 4000 cells per well for the VA-13 cell line were plated out in 135 μL of DMEM-F12 media (Gibco, Thermo Fisher Scientific, Waltham, MA, USA) in a 96-well plate and incubated in the 5% CO2 incubator for the first 20 h without treatment. Then, 15.8 μL of media–DMSO solutions of tested substances (final DMSO concentrations in the media were 0.5% or less) was added to the cells (triplicate each) and cells were treated for 64 h with 0.023 mg/L–50 mg/L (eight dilutions) of compounds 2f,n,o,r; 1.14 μg/L–2.5 mg/L (eight dilutions) of compounds 2a,b,d,g,h,k,l,p,q; 57.2 ng/L–125 μg/L (eight dilutions) of compounds 2e,i,j; 22.9 ng/L–50 μg/L (eight dilutions) of compounds 1,2c,m. Doxorubicin was used as a control substance. Then, the MTT reagent (Paneco LLC, Moscow, Russia) was added to cells up to a final concentration of 0.5 g/L (10 × stock solution in PBS was used) and incubated for 2 h at 37 °C in the incubator, under an atmosphere of 5% CO2. Then, the MTT solution was discarded, and 140 μL of DMSO (PharmaMed LLC, Moscow, Russia) was added. The plates were swayed on a shaker (120 rpm) to dissolve the formazan. The absorbance was measured using a microplate reader (VICTOR X5 Light Plate Reader, PerkinElmer, Waltham, MA, USA) at a wavelength of 555 nm (in order to measure formazan concentration). The results were used to construct dose–response graphs and to estimate IC50 values (IC50 is the concentration resulting in half of the maximal cytotoxic effect) with GraphPad Prism V, GraphPadSoftware, Inc., San Diego, CA, USA.

[2] = test system: immortalized human embryonic kidney cell line HEK293T; assay: MTT cytotoxicity assay, HEK293T; assay type: cell-based; conditions: HEK-293T, read-out: IC50, nM HEK293T
Text: as §1, §2, §3

HCT116 cell line = assay: MTT cytotoxicity towards HCT116; assay type: cell-based, human; conditions: HCT-116
HCT116 cells = assay: Apoptosis induction, Annexin V / 7-AAD flow cytometry; assay type: cell-based, human; conditions: for Live (viable cells): human, 48 h
Method: Apoptosis is an important and active regulatory pathway of cell growth and proliferation. Annexin V is a calcium-dependent phospholipid-binding protein with a high affinity for phosphatidylserine (PS), a membrane component normally localized to the internal face of the cell membrane. Early in the apoptotic pathway, molecules of PS are translocated to the outer surface of the cell membrane where Annexin V can readily bind them.
After incubation, the cells were harvested by trypsinization, precipitated by centrifugation (3000 rpm), washed with cold PBS and recentrifuged. Aliquots of cells were processed as recommended in the Muse Annexin V& Dead Cell Kit (Luminex Corporation, Austin, TX, USA). The results were recorded on a Muse Cell Analyzer flow cytometer (Merck, Rahway, NJ, USA).

[3] = test system: human lung epithelial carcinoma cell line A549; assay: MTT cytotoxicity assay, A549; assay type: cell-based; conditions: read-out: IC50, nM A549
Text: as §1, §2, §3

[4] = test system: tubulin (Tb) and microtubule-associated proteins (MAPs) from mouse brains; assay: Tubulin + MAP polymerization assay; assay type: biochemical; conditions: GTP-dependent polymerization, read-out: IC50 of tubulin polymerization (initial rates, optical density at 355 nm)
[5] = test system: human breast cancer cell line MCF7′; assay: MTT cytotoxicity assay, MCF7′; assay type: cell-based; conditions: read-out: IC50, nM MCF7′
Text: as §1, §2, §3

[6] = test system: MCF7′, A549, VA13, HEK293T cell lines; assay: MTT cytotoxicity, SAR statements over the cell line panel; assay type: cell-based, human; conditions: pair A549/VA13
Text: as §1, §3

[7] = test system: microtubules in carcinoma A549 cells; assay: Immunofluorescent microscopy of microtubules; assay type: cell-based, human; conditions: 24 h, A549
Method: Since verubulin is known to stimulate microtubule disassociation, we performed an immunofluorescent microscopy study to determine the response of microtubule dynamics in carcinoma A549 cells to the treatment with representative compounds 2b,c,e. […] Aberrant cell morphology—contraction and rounding (Figure 2A,B) or contraction and elongation (Figure 2C)—was also observed.
A549 cells were seeded on coverslips (treated with poly-l-lysine at a concentration of 33 mg/L for an hour). Compounds were added up to the corresponding concentration after 24 h attachment and growth of the cells. Then, cells were incubated 24 h.
The cells were fixed with methanol (precooled in liquid nitrogen for 20 min), no additional permeabilization was performed. To prevent non-specific binding, cells were incubated with 4% BSA in PBS for one hour. Then, a solution of mouse monoclonal antibodies against alpha-tubulin cross-linked with Alexa 488 fluoroform (Thermo Fisher Scientific, Waltham, MA, USA, 32-2588) at a concentration of 5 μg/mL in 1% BSA solution in PBS was added to the cells, and the slides were incubated at +5 °C in a water chamber for 24 h. After the end of the incubation time, the cells were washed several times with PBS buffer solution and fixed on a glass slide with Moviol. Next day, cells were imaged with a ZEISS LSM 900 (ZEISS Microscopy, GmbH, Germany) and images processed with ImageJ.

MCF7/MCF10A = test system: MCF7/MCF10A; design: method as in PMID 36802449; conditions: cited from earlier work
[8] = 2 × IC50, 48 h, HCT116, listed as verubulin (1)
[9] = HCT116, human colon carcinoma, read-out: IC50

Compound: COc1ccc2c(c1)NC(=O)CN2c1nc(C)nc2c1CCC2 [Banerjee 2021]
- IC50 (A549): 4.5 nM

Compound: COc1ccc(N(C)c2nc(C)nc3ccccc23)cc1 [Compound 1, Verubulin]
- IC50 (A549): 5 nM
- IC50 ([1]; VA-13, 64 h): 0.84 ± 0.06 nM
- IC50 ([2]; 64 h): 1 ± 0.02 nM
- IC50 (HCT116 cell line; Homo sapiens): 3.2 ± 0.7 nM
- apoptotic cells, early plus late (HCT116 cells; 2 × IC50, 48 h, HCT116): 49.3%
- Early Apop. (Annexin V (+), 7-AAD (−)) (HCT116 cells; [8]): 16.3%
- Late Apop./Dead (Annexin V (+), 7-AAD (+)) (HCT116 cells; [8]): 33%
- IC50 ([3]; A549, 64 h): 1.1 ± 0.05 nM
- IC50 [4]: 3.1 ± 1.1 µM
- IC50 ([5]; MCF7, 64 h): 1.4 ± 0.05 nM
- selectivity towards tumor cells [6]: no selectivity

- IC50 [4]: 26 ± 6 µM
Compound: COc1ccc2c(c1)CCCN2c1nc(C)nc2c1CCCC2 [Compound 2e, 4-(6-Methoxy-3,4-dihydroquinolin-1(2H)-yl)-2-methyl-5,6,7,8-tetrahydroquinazoline]
- effect on microtubules (MTs) ([7]; 10 μM): full depolymerization of MTs
- effect on microtubules ([7]; 5–10 μM): pronounced or complete disruption of microtubules
- IC50 ([1]; VA-13, 64 h treatment, MTT): 7.1 ± 2 nM
- IC50 ([2]; 64 h treatment, MTT): 8.8 ± 2 nM
- IC50 (HCT116 cell line; [9]): 22 ± 5 nM
- IC50 ([3]; A549, 64 h treatment, MTT): 13.5 ± 2.2 nM
- IC50 ([5]; MCF7, 64 h treatment, MTT): 12.6 ± 2.1 nM

Compound: COc1ccc(N(C)c2nc(N)nc3c2CCCC3)cc1 [Compound 2i, N^4-(4-Methoxyphenyl)-N^4-methyl-5,6,7,8-tetrahydroquinazolinyl-2,4-diamine]
- IC50 ([1]; VA-13, 64 h treatment, MTT): 6 ± 1.5 nM
- IC50 ([2]; 64 h treatment, MTT): 9.6 ± 2.2 nM
- IC50 (HCT116 cell line; [9]): 40 ± 10 nM
- Early Apop. (Annexin V (+), 7-AAD (−)) (HCT116 cells; 2 × IC50, 48 h, HCT116): 46.3%
- Live (viable cells) (HCT116 cells): 43.99%
- IC50 ([3]; A549, 64 h treatment, MTT): 15 ± 2 nM
- IC50 ([5]; MCF7, 64 h treatment, MTT): 10.2 ± 1.5 nM

Compound: COc1ccc2c(c1)CCCN2c1nc(N)nc2c1CCCC2 [Compound 2j, 2-Amino-4-(6-methoxy-3,4-dihydroquinolin-1(2H)-yl)-5,6,7,8-tetrahydroquinazoline]
- IC50 ([1]; VA-13, 64 h treatment, MTT): 14.5 ± 3.9 nM
- IC50 ([2]; 64 h treatment, MTT): 28.9 ± 6.6 nM
- IC50 (HCT116 cell line; [9]): 160 ± 30 nM
- Early Apop. (Annexin V (+), 7-AAD (−)) (HCT116 cells; 2 × IC50, 48 h, HCT116): 56.4%
- Live (viable cells) (HCT116 cells): 30.81%
- IC50 ([3]; A549, 64 h treatment, MTT): 50.5 ± 11.1 nM
- IC50 ([5]; MCF7, 64 h treatment, MTT): 40.2 ± 7.8 nM

Compound: COc1ccc(N(C)c2nc(Cl)nc3c2CCCC3)cc1 [Compound 2m, 2-Chloro-N-(4-methoxyphenyl)-N-methyl-5,6,7,8-tetrahydroquinazolin-4-amine]
- selectivity in the pair MCF7/MCF10A (MCF7/MCF10A): selective
- IC50 ([1]; VA-13, 64 h treatment, MTT): 1.3 ± 0.18 nM
- IC50 ([2]; 64 h treatment, MTT): 2.7 ± 0.12 nM
- IC50 (HCT116 cell line; [9]): 1.8 ± 0.1 nM
- Live (viable cells) (HCT116 cells): 52.58%
- IC50 ([3]; A549, 64 h treatment, MTT): 3 ± 0.2 nM
- IC50 ([5]; MCF7, 64 h treatment, MTT): 3.3 ± 0.14 nM
- selectivity towards tumor cells [6]: no selectivity

Compound: COc1ccc(N(C)c2nc(Cl)nc3c2CCCC3)cc1 [Tan 2023]
- IC50 (A549): 4.7 nM

Compound: COc1ccc2c(c1)CCCN2c1nc(C)nc2ccccc12 [Wang 2013]
- GI50 (A549): 17.8 nM
